Patent EP1175901A1, “PEROXISOME ACTIVATOR-RESPONSIVE RECEPTOR AGONISTS” (Kaneka Corporation, priority 1999, dated 2000)
Marks after values point to notes of the source that are not given here.

Legend:
C57BL/6J mice [1] = assay: Lipid metabolism amelioration: plasma lipid concentrations in obese mice (Example 4); assay type: in vivo; conditions: after 16 hours without feed, 3 weeks test feed, 7wt% test oil (CLA 0.5wt%), soybean oil group = 100
Source text: 10-week old female C57BL/6J mice (from Clea Japan) were made obese by keeping for 3 weeks on a high-fat, high-sugar feed (made by Oriental Yeast) having the composition shown in Table 4. The mice were then divided into groups of 8, and were kept for a further 3 weeks on a test feed consisting of a fat-free growth-period-use standard mixed feed (AIN-93G, made by Oriental Yeast) with 2wt% soybean oil as an essential fatty acid source and either 7wt% of a test oil or 7wt% of a control oil added. After 3 weeks, the mice were fed for the last time and then not fed for 16 hours, after which the whole blood was collected from the mice using a heparinized syringe under ether anesthesia, and then the mice were dissected, with the adipose tissue around the kidneys, the adipose tissue around the ovaries, the liver, the kidneys and the spleen being extracted, and the weights thereof being measured. Each organ weight thus obtained was divided by the body weight to obtain the ratio of the organ weight to the body weight. The adipose tissue around the kidneys and the adipose tissue around the ovaries was evaluated as visceral adipose tissue. The collected blood was centrifuged for 15 minutes at 3000 rpm while cooling to obtain the plasma, and then the total cholesterol concentration was measured using Cholesterol C Test Wako (made by Wako Pure Chemical Industries), the neutral lipid concentration using Triglyceride G Test Wako (made by Wako Pure Chemical Industries), and the free fatty acid concentration using NEFA C Test Wako (made by Wako Pure Chemical Industries). The groups set up were a test group for which pomegranate seed oil prepared as in Example 1 was added to the feed (pomegranate seed oil group), a control group for which soybean oil was added to the feed (soybean oil group), and a comparative group for which high-DHA-containing fish oil (DHA content 20wt%, made by Harima Chemicals), which is known to have obesity ameliorating effects, was added to the feed (fish oil group). […]

C57BL/6J mice [2] = assay: Visceral fat reduction: tissue weights in mice made obese on high-fat, high-sugar feed (Example 4); assay type: in vivo; conditions: obese female C57BL/6J mice, 3 weeks test feed, 7wt% test oil (CLA group: 0.5wt% CLA + 6.5wt% soybean oil)
Experimental: The visceral fat reduction effects or visceral fat accumulation suppression effects of the PPAR agonist and oil/fat composition of the present invention are evaluated by administering the candidate compound to a laboratory animal for a specific time period (e.g. 4 weeks), and then measuring the amount of visceral fat in the adipose tissue around the testes, the adipose tissue around the kidneys and the like.
10-week old female C57BL/6J mice (from Clea Japan) were made obese by keeping for 3 weeks on a high-fat, high-sugar feed (made by Oriental Yeast) having the composition shown in Table 4. The mice were then divided into groups of 8, and were kept for a further 3 weeks on a test feed consisting of a fat-free growth-period-use standard mixed feed (AIN-93G, made by Oriental Yeast) with 2wt% soybean oil as an essential fatty acid source and either 7wt% of a test oil or 7wt% of a control oil added. After 3 weeks, the mice were fed for the last time and then not fed for 16 hours, after which the whole blood was collected from the mice using a heparinized syringe under ether anesthesia, and then the mice were dissected, with the adipose tissue around the kidneys, the adipose tissue around the ovaries, the liver, the kidneys and the spleen being extracted, and the weights thereof being measured. Each organ weight thus obtained was divided by the body weight to obtain the ratio of the organ weight to the body weight. The adipose tissue around the kidneys and the adipose tissue around the ovaries was evaluated as visceral adipose tissue. The collected blood was centrifuged for 15 minutes at 3000 rpm while cooling to obtain the plasma, and then the total cholesterol concentration was measured using Cholesterol C Test Wako (made by Wako Pure Chemical Industries), the neutral lipid concentration using Triglyceride G Test Wako (made by Wako Pure Chemical Industries), and the free fatty acid concentration using NEFA C Test Wako (made by Wako Pure Chemical Industries). The groups set up were a test group for which pomegranate seed oil prepared as in Example 1 was added to the feed (pomegranate seed oil group), a control group for which soybean oil was added to the feed (soybean oil group), and a comparative group for which high-DHA-containing fish oil (DHA content 20wt%, made by Harima Chemicals), which is known to have obesity ameliorating effects, was added to the feed (fish oil group). Also set up was a group for which 6.5wt% of soybean oil and 0.5wt% of CLA (made by Kenko Tsusho, 70% purity) was added to the feed (CLA group). […] Moreover, also set up was a group that were fed a standard feed containing 9wt% of soybean oil throughout the test period right from the start (standard feed group, n=3). During the test period, the mice were allowed to drink water freely, but feeding was limited such that the intake was the same as for the soybean oil group.

mice = assay: Preliminary tests of CLA added to feed (liver enlargement, food intake); assay type: in vivo; conditions: 1wt% or more of CLA added to the feed
PPARγ = biological target: T1, PPARγ (Homo sapiens, UniProt P37231); assay: PPARγ agonist activity, GAL4-PPARγ chimera / 4×UASg-luc luciferase reporter assay in CV-1 cells; conditions: for Relative activity (n=3): untreated control = 100
T1 sequence (P37231 204-505): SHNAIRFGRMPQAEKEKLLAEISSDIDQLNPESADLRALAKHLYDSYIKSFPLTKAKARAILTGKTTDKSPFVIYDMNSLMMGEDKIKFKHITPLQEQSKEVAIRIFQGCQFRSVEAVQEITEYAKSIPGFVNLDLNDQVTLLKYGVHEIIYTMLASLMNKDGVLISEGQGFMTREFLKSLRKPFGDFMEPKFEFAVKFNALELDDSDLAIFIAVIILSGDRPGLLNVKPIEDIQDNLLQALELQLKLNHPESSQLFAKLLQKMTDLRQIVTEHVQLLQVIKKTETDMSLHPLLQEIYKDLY
Experimental: Moreover, untreated control groups were established by exchanging with a culture medium prepared by diluting only DMSO with DMEM containing 10% activated-charcoal-treated bovine fetal serum. […] One day after the culture medium exchange, the culture medium was removed, the cells were washed with phosphate buffered saline (PBS), a cell solution was prepared using PicaGene cell solution Luc (made by Toyo Ink), 20µl of the cell solution was reacted with 100µl of a PicaGene luminescent substrate (made by Toyo Ink), and the luciferase activity was measured using a luminometer (Berthold Lumat LB9501) with the measurement time set to 10 seconds.
Letting the ratio of the measurement group (the group for which pM-PPAR and 4×UASg-luc were transfected) to the control group (the group for which pM and 4×UASg-luc were transfected) in the case of the untreated control groups be (a), and the ratio of the measurement group to the control group in the case of the ligand-reagent-added groups be (b), the PPARγ agonist activity caused by the ligand reagent was evaluated using the ratio (b)/(a). To avoid errors due to differences in the transfection efficiency between experiments, TZD (1µm) was put in as positive control groups and the values between the experiments were corrected.

conjugated linoleic acid [CLA]
Relative blood lipid concentration (mean, n=8): Free fatty acids (C57BL/6J mice [1]): 71* % of soybean oil group
Relative blood lipid concentration (mean, n=8): Neutral lipids (C57BL/6J mice [1]): 100 mg/dL
Relative blood lipid concentration (mean, n=8): Total cholesterol (C57BL/6J mice [1]): 89 mg/dL
Ratio of tissue weight to body weight (mean, n=8): Fat around kidneys (C57BL/6J mice [2]; soybean oil group 0.304): 0.240
Ratio of tissue weight to body weight (mean, n=8): Spleen (C57BL/6J mice [2]; soybean oil group 0.391): 0.450
Ratio of tissue weight to body weight (mean, n=8): Fat around ovaries (C57BL/6J mice [2]; soybean oil group 0.839): 0.650
Ratio of tissue weight to body weight (mean, n=8): Kidneys (C57BL/6J mice [2]; soybean oil group 1.128): 1.280
Ratio of tissue weight to body weight (mean, n=8): Visceral fat (C57BL/6J mice [2]; soybean oil group 1.144): 0.890
Ratio of tissue weight to body weight (mean, n=8): Liver (C57BL/6J mice [2]; soybean oil group 4.454): 4.920
food intake (mice): drop in the mice's food intake
liver enlargement (mice): 1.4 times relative to a control
Relative activity (mean, n=3) (PPARγ; 20µM final fatty acid concentration, untreated control group = 100): 125
Relative activity (n=3) (PPARγ; concentration 3 (µm [sic]), 3 µM): 129
Relative activity (n=3) (PPARγ; concentration 9 (µm [sic]), 9 µM): 109
Relative activity (n=3) (PPARγ; concentration 30 (µm [sic]), 30 µM): 110
Relative activity (n=3) (PPARγ; concentration 90 (µm [sic]), 90 µM): 159
Relative activity (n=3) (PPARγ; concentration 300 (µm [sic]), 300 µM): 323
